In the oligonucleotide strings, read from the 5' end, every base follows the letter of its sugar. An asterisk marks phosphorothioate; unmarked linkages are phosphodiester. Other units and linkages are bracketed, terminal groups are in braces. A string of capitals states the bases alone. e = 2'-O-(2-methoxyethyl) (MOE); [5mC] = 5-methylcytosine; d = 2'-deoxy (DNA)
Experiments:
[1] = system: BJ, B16-F10, T47D, T47Dp53 and HeLa cells; test: Cell cycle assay (propidium iodide flow cytometry), cell line panel; format: cell-based; conditions: 150 nM, 72 hours (Table 29)
adipocytes = test: Triglyceride accumulation assay in adipocytes; format: cell-based, human
Glut4 = Glut4 mRNA expression in adipocytes (real-time PCR); format: cell-based, human
HSL = HSL mRNA expression in adipocytes (real-time PCR); format: cell-based, human
PPARγ = PPARγ mRNA expression in adipocytes (real-time PCR); format: cell-based, human
aP2 = aP2 mRNA expression in adipocytes (real-time PCR); format: cell-based, human; conditions: for aP2 mRNA: Table 75
[2] = Table 17, differentiating adipocytes, control = treatment with ISIS 342673
[3] = differentiating adipocytes transfected with oligomeric compound, Table 75
[4] = differentiating adipocytes transfected with oligomeric compound
[5] = 300 nM, differentiating adipocytes day 10 post-induction, 24 hours after treatment
[6] = Table 18, differentiating adipocytes, control = treatment with ISIS 342673

Row | Substance | TG (triglyceride accumulation) (adipocytes; [3]) | GLUT4 mRNA (Glut4; [3]) | HSL mRNA (HSL; [3]) | PPAR gamma mRNA (PPARγ; [3]) | aP2 mRNA (aP2; [4]) | further results
1 | AGCCTATCCTGGATTACTTGAA (anti-miR; chemistry not fully specified) [ISIS 327907, uniform 2′-MOE PS; targets mir-26a] |  |  |  |  |  | percentage of aneuploid cells [1]: higher than average percentages of aneuploid cells; percentage of cells with hypodiploid DNA content (subG1) [1]: increased percentage of cells with hypodiploid DNA content
2 | 328139 (eT*eA*e[5mC]*eT*eT*eT*eT*e[5mC]*eA*eT*eT*e[5mC]*e[5mC]*e[5mC]*e[5mC]*eT*e[5mC]*eA*e[5mC]*e[5mC]*eA; anti-miR) [compound 328139] | 90 percentage of untreated control (UTC) | 85 percentage of untreated control (UTC) | 116 percentage of untreated control (UTC) | 91 percentage of untreated control (UTC) | 100 percentage of untreated control (UTC) | TG (triglyceride accumulation) (adipocytes; [2]): 89.1 percentage of control; GLUT4 mRNA (Glut4; [2]): 106.3 percentage of control; HSL mRNA (HSL; [2]): 92.6 percentage of control; PPAR gamma mRNA (PPARγ; [2]): 115.0 percentage of control; AP2 mRNA (aP2; [2]): 98.3 percentage of control
3 | 346908 (GCUUUGACAAUACUAUUGCACUG; all 2'-MOE, all phosphorothioate, methylation of C and T or U not given here) [compound 346908] | 75 percentage of untreated control (UTC) | 65 percentage of untreated control (UTC) | 71 percentage of untreated control (UTC) | 77 percentage of untreated control (UTC) | 77 percentage of untreated control (UTC) | 
4 | 346907 (AUGUAUGUGGGACGGUAAACCA; all 2'-MOE, all phosphorothioate, methylation of C and T or U not given here) [compound 346907] | 47 percentage of untreated control (UTC) | 37 percentage of untreated control (UTC) | 36 percentage of untreated control (UTC) | 51 percentage of untreated control (UTC) | 50 percentage of untreated control (UTC) | 
5 | 328094 (antisense eT*eT*eG*eT*eA*eA*eG*e[5mC]*eA*eG*eT*eT*eT*eT*eG*eT*eT*eG*eA*e[5mC]*eA) [compound 328094] | 65 percentage of untreated control (UTC) | 83 percentage of untreated control (UTC) | 74 percentage of untreated control (UTC) | 94 percentage of untreated control (UTC) | 68 percentage of untreated control (UTC) | 
6 | 340358 (antisense CAGCUAUGCCAGCAUCUUGCC; all 2'-MOE, all phosphorothioate, methylation of C and T or U not given here) [compound 340358] | 23 percentage of untreated control (UTC) | 21 percentage of untreated control (UTC) | 24 percentage of untreated control (UTC) | 42 percentage of untreated control (UTC) | 47 percentage of untreated control (UTC) | 
7 | 344616 (AGAGGUCGACCGUGUAAUGUGC; anti-miR; all 2'-MOE, all phosphorothioate, methylation of C and T or U not given here) [compound 344616] | 32 percentage of untreated control (UTC) | 2 percentage of untreated control (UTC) | 23 percentage of untreated control (UTC) | 36 percentage of untreated control (UTC) | 26 percentage of untreated control (UTC) | 
8 | 341797 (antisense ACAAGUGCCUUCACUGCAGU; all 2'-MOE, all phosphorothioate, methylation of C and T or U not given here) [compound 341797] | 20 percentage of untreated control (UTC) | 17 percentage of untreated control (UTC) | 29 percentage of untreated control (UTC) | 50 percentage of untreated control (UTC) | 45 percentage of untreated control (UTC) | 
9 | 328093 (antisense eT*eA*eA*eA*e[5mC]*eA*eT*e[5mC]*eA*e[5mC]*eT*eG*e[5mC]*eA*eA*eG*eT*e[5mC]*eT*eT*eA) [compound 328093] |  |  |  |  |  | TG (triglyceride accumulation) (adipocytes; [4]): 59 percentage of untreated control (UTC); GLUT4 mRNA (Glut4; [4]): 73 percentage of untreated control (UTC); HSL mRNA (HSL; [4]): 89 percentage of untreated control (UTC); PPAR gamma mRNA (PPARγ; [4]): 99 percentage of untreated control (UTC); AP2 mRNA (aP2; [4]): 97 percentage of untreated control (UTC)
10 | 346920 (AGCAAAAAUGUGCUAGUGCCAAA; all 2'-MOE, all phosphorothioate, methylation of C and T or U not given here) [compound 346920] | 63 percentage of untreated control (UTC) | 61 percentage of untreated control (UTC) | 53 percentage of untreated control (UTC) | 70 percentage of untreated control (UTC) | 70 percentage of untreated control (UTC) | 
11 | 346919 (CUACCUGCACGAACAGCACUUUG; all 2'-MOE, all phosphorothioate, methylation of C and T or U not given here) [compound 346919] | 44 percentage of untreated control (UTC) | 50 percentage of untreated control (UTC) | 45 percentage of untreated control (UTC) | 65 percentage of untreated control (UTC) | 64 percentage of untreated control (UTC) | 
12 | 327972 (antisense eA*e[5mC]*eT*e[5mC]*eA*e[5mC]*e[5mC]*eG*eA*e[5mC]*eA*eG*eG*eT*eT*eG*eA*eA*eT*eG*eT*eT) [compound 327972] | 67 percentage of untreated control (UTC) | 75 percentage of untreated control (UTC) | 70 percentage of untreated control (UTC) | 85 percentage of untreated control (UTC) | 70 percentage of untreated control (UTC) | 
13 | 341799 (antisense ACCUAAUAUAUCAAACAUAUCA; all 2'-MOE, all phosphorothioate, methylation of C and T or U not given here) [compound 341799] | 98 percentage of untreated control (UTC) | 89 percentage of untreated control (UTC) | 103 percentage of untreated control (UTC) | 89 percentage of untreated control (UTC) | 101 percentage of untreated control (UTC) | 
14 | 328098 (antisense eG*eA*eG*eA*eA*eT*e[5mC]*eA*eA*eT*eA*eG*eG*eG*e[5mC]*eA*eT*eG*e[5mC]*eA*eA) [compound 328098] | 39 percentage of untreated control (UTC) | 25 percentage of untreated control (UTC) | 28 percentage of untreated control (UTC) | 54 percentage of untreated control (UTC) | 23 percentage of untreated control (UTC) | 
15 | 348119 (UCCAUAAAGUAGGAAACACUACA; anti-miR; all 2'-MOE, all phosphorothioate, methylation of C and T or U not given here) [compound 348119] | 91 percentage of untreated control (UTC) | 86 percentage of untreated control (UTC) | 76 percentage of untreated control (UTC) | 90 percentage of untreated control (UTC) | 81 percentage of untreated control (UTC) | 
16 | 344275 (antisense UCUAGUGGUCCUAAACAUUUCA; all 2'-MOE, all phosphorothioate, methylation of C and T or U not given here) [compound 344275] | 36 percentage of untreated control (UTC) | 21 percentage of untreated control (UTC) | 39 percentage of untreated control (UTC) | 46 percentage of untreated control (UTC) | 36 percentage of untreated control (UTC) | 
17 | 328116 (antisense e[5mC]*eA*eA*eA*eA*eT*eT*eG*e[5mC]*eA*eA*eG*e[5mC]*eA*eA*eA*eT*eT*eG*e[5mC]*eA) [compound 328116] | 107 percentage of untreated control (UTC) | 105 percentage of untreated control (UTC) | 91 percentage of untreated control (UTC) | 95 percentage of untreated control (UTC) | 99 percentage of untreated control (UTC) | TG (triglyceride accumulation) (adipocytes; [2]): 82.1 percentage of control; GLUT4 mRNA (Glut4; [2]): 75.2 percentage of control; HSL mRNA (HSL; [2]): 75.8 percentage of control; PPAR gamma mRNA (PPARγ; [2]): 78.4 percentage of control; AP2 mRNA (aP2; [2]): 87.7 percentage of control
18 | 105990 (antisense AGCAAAAGATCAATCCGTTA; sugars from the 5' end e5 d10 e5, backbone and methylation of C not given here) [compound 105990] |  |  |  |  |  | Triglycerides (adipocytes; [5]): 16.6 % UTC; TG (triglyceride accumulation) (adipocytes; [2]): 28.2 percentage of control; TG (triglyceride accumulation) (adipocytes; [6]): 32.8 percentage of control; GLUT4 mRNA (Glut4; [5]): 11.8 % UTC; GLUT4 mRNA (Glut4; [2]): 59.5 percentage of control; GLUT4 mRNA (Glut4; [6]): 68.1 percentage of control; HSL mRNA (HSL; [5]): 7.4 % UTC; HSL mRNA (HSL; [2]): 49.2 percentage of control; HSL mRNA (HSL; [6]): 52.0 percentage of control; PPAR-gamma mRNA (PPARγ; [5]): 43.9 % UTC; PPAR gamma mRNA (PPARγ; [2]): 51.8 percentage of control; PPAR gamma mRNA (PPARγ; [6]): 60.1 percentage of control; AP2 mRNA (aP2; [5]): 17.9 % UTC; AP2 mRNA (aP2; [2]): 51.6 percentage of control; AP2 mRNA (aP2; [6]): 49.8 percentage of control

— patent US8178506B2, “Oligomeric compounds and compositions for use in modulation of small non-coding RNAs” (Regulus Therapeutics Inc., priority 2003, dated 2012)
